Measured values as given in ChEMBL document CHEMBL4265936, “Pyrazolo[4,3-b]pyrimido[4,5-e][1,4]diazepine derivatives as new multi-targeted inhibitors of Aurora A/B and KDR” (Eur J Med Chem, 2018).
Each block holds one compound with its values, some of them ahead of it.

Tests used:
[1] = test system: MKN-74; assay: Antiproliferative activity against human MKN74 cells after 72 hrs by sulforhodamine B assay; assay type: functional, cell-based; conditions: MKN-74, 72 h
[2] = test system: SGC-7901; assay: Antiproliferative activity against human SGC7901 cells after 72 hrs by sulforhodamine B assay; assay type: functional, cell-based; conditions: SGC-7901, 72 h
[3] = test system: SNU-5; assay: Antiproliferative activity against human SNU5 cells after 72 hrs by CCK8 assay; assay type: functional, cell-based; conditions: SNU-5, 72 h
[4] = test system: MKN-45; assay: Antiproliferative activity against human MKN45 cells after 72 hrs by sulforhodamine B assay; assay type: functional, cell-based; conditions: MKN-45, 72 h
[5] = test system: BGC-823; assay: Antiproliferative activity against human BGC823 cells after 72 hrs by sulforhodamine B assay; assay type: functional, cell-based; conditions: BGC-823, 72 h
[6] = biological target: T1, Aurora kinase A (Homo sapiens, UniProt O14965); assay: Inhibition of Aurora A (unknown origin) using STK S2 as substrate after 40 mins by HTRF assay
T1 sequence (O14965 whole entry): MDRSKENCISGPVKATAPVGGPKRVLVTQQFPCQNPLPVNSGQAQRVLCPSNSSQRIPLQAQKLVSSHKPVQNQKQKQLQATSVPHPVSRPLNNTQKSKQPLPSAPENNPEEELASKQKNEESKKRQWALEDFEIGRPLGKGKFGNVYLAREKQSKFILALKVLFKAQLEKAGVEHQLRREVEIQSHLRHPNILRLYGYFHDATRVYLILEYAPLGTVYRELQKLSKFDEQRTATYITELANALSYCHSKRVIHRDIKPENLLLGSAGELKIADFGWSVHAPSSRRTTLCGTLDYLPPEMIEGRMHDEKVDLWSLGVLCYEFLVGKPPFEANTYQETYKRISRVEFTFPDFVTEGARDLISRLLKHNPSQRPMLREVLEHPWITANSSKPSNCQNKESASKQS

[7] = biological target: Aurora kinase B (Homo sapiens, UniProt Q96GD4); assay: Inhibition of Aurora B (unknown origin) using STK S2 as substrate after 30 mins by HTRF assay
[8] = biological target: Vascular endothelial growth factor receptor 2 (Homo sapiens, UniProt P35968); assay: biochemical; assay type: cell-based, Sf21
Description: Inhibition of recombinant human N-terminal His6-tagged KDR (790 to end residues) expressed in baculovirus infected Sf21 insect cells after 60 mins by ELISA

[9] = biological target: Platelet-derived growth factor receptor beta (Homo sapiens) (UniProt P09619); assay: Inhibition of recombinant human PDGFRbeta at 1000 nM after 60 mins by ELISA relative to control
[10] = biological target: Proto-oncogene tyrosine-protein kinase receptor Ret (Homo sapiens) (UniProt P07949); assay: Inhibition of recombinant human RET at 1000 nM after 60 mins by ELISA relative to control
[11] = test system: Mus musculus; assay: Toxicity in nude mouse xenografted with human SNU5 cells assessed as body weight at 30 mg/kg, po qd for 21 days (reference value: 19.6 g); assay type: organism-based; conditions: in vivo, 504 h
[12] = test system: SNU-5; assay: Antitumor activity against human SNU5 cells xenografted in nude mouse assessed as delay in tumor tumor growth at 30 mg/kg, po qd for 21 days relative to control; assay type: functional
[13] = test system: Mus musculus; assay: Toxicity in nude mouse xenografted with human SNU5 cells assessed as mortality at 30 mg/kg, po qd for 21 days; assay type: organism-based; conditions: in vivo, 504 h
[14] = biological target: Vascular endothelial growth factor receptor 1 (Homo sapiens) (UniProt P17948); assay: Inhibition of recombinant human VEGFR1 at 100 nM after 60 mins by ELISA relative to control
[15] = test system: SNU-5; assay: Antitumor activity against human SNU5 cells xenografted in nude mouse assessed as delay in tumor growth at 20 mg/kg, po qd for 21 days relative to control; assay type: functional
[16] = Oral bioavailability in ICR mouse at 25 mg/kg administered as single dose by LC-MS analysis; assay type: ADME, organism-based; conditions: in vivo
[17] = test system: Mus musculus; assay: Toxicity in nude mouse xenografted with human SNU5 cells assessed as mortality at 20 mg/kg, po qd for 21 days; assay type: organism-based; conditions: in vivo, 504 h
[18] = biological target: Proto-oncogene tyrosine-protein kinase Src (Homo sapiens) (UniProt P12931); assay: Inhibition of recombinant human c-SRC at 100 nM after 60 mins by ELISA relative to control
[19] = test system: SNU-5; assay: Cell cycle arrest in human SNU5 cells assessed as accumulation at G2/M phase after 24 hrs by propidium iodide staining based flow cytometry; assay type: functional
[20] = biological target: Insulin-like growth factor 1 receptor (Homo sapiens) (UniProt P08069); assay: Inhibition of recombinant human IGF1R at 100 nM after 60 mins by ELISA relative to control
[21] = Volume of distribution at steady state in ICR mouse at 5 mg/kg, iv administered as single dose by LC-MS analysis; assay type: ADME, organism-based; conditions: in vivo, read-out: Vdss
[22] = Terminal elimination half life in ICR mouse at 25 mg/kg, po administered as single dose by LC-MS analysis; assay type: ADME, organism-based; conditions: in vivo, read-out: beta t1/2 (converted)
[23] = biological target: Proto-oncogene tyrosine-protein kinase receptor Ret (Homo sapiens) (UniProt P07949); assay: Inhibition of recombinant human RET at 100 nM after 60 mins by ELISA relative to control
[24] = test system: MKN-45; assay: Cell cycle arrest in human MKN45 cells assessed as accumulation at G2/M phase after 24 hrs by propidium iodide staining based flow cytometry; assay type: functional
[25] = Cmax in ICR mouse at 25 mg/kg, po administered as single dose by LC-MS analysis; assay type: ADME, organism-based; set-up: dose 25 mg/kg, route oral; conditions: in vivo
[26] = biological target: Proto-oncogene tyrosine-protein kinase Src (Homo sapiens) (UniProt P12931); conditions: at 1000 nM
Description: Inhibition of recombinant human c-SRC at 1000 nM after 60 mins by ELISA relative to control

[27] = biological target: Insulin-like growth factor 1 receptor (Homo sapiens) (UniProt P08069); assay: Inhibition of recombinant human IGF1R at 1000 nM after 60 mins by ELISA relative to control
[28] = biological target: Epidermal growth factor receptor (Homo sapiens) (UniProt P00533); conditions: at 1000 nM
Description: Inhibition of recombinant human EGFR at 1000 nM after 60 mins by ELISA relative to control

[29] = test system: Mus musculus; assay: AUC (0 to t) in ICR mouse at 5 mg/kg, iv administered as single dose by LC-MS analysis; assay type: ADME, organism-based; conditions: in vivo
[30] = biological target: Tyrosine-protein kinase ABL1 (Homo sapiens) (UniProt P00519); conditions: at 1000 nM
Description: Inhibition of recombinant human ABL at 1000 nM after 60 mins by ELISA relative to control

[31] = biological target: Vascular endothelial growth factor receptor 1 (Homo sapiens) (UniProt P17948); assay: Inhibition of recombinant human VEGFR1 at 1000 nM after 60 mins by ELISA relative to control
[32] = biological target: Receptor tyrosine-protein kinase erbB-2 (Homo sapiens) (UniProt P04626); assay: Inhibition of recombinant human Erbb2 at 1000 nM after 60 mins by ELISA relative to control
[33] = Tmax in ICR mouse at 25 mg/kg, po administered as single dose by LC-MS analysis; assay type: ADME, organism-based; conditions: in vivo
[34] = Terminal elimination half life in ICR mouse at 5 mg/kg, iv administered as single dose by LC-MS analysis; assay type: ADME, organism-based; conditions: in vivo, read-out: beta t1/2 (converted)
[35] = test system: SGC-7901; assay: Cell cycle arrest in human SGC7901 cells assessed as accumulation at G2/M phase after 24 hrs by propidium iodide staining based flow cytometry; assay type: functional
[36] = biological target: Platelet-derived growth factor receptor beta (Homo sapiens) (UniProt P09619); assay: Inhibition of recombinant human PDGFRbeta at 100 nM after 60 mins by ELISA relative to control
[37] = Clearance in ICR mouse at 5 mg/kg, iv administered as single dose by LC-MS analysis; assay type: ADME, organism-based; conditions: in vivo
[38] = test system: Mus musculus; assay: AUC (0 to t) in ICR mouse at 25 mg/kg, po administered as single dose by LC-MS analysis; assay type: ADME, organism-based; conditions: in vivo
[39] = biological target: Receptor tyrosine-protein kinase erbB-2 (Homo sapiens) (UniProt P04626); assay: Inhibition of recombinant human Erbb2 at 100 nM after 60 mins by ELISA relative to control
[40] = biological target: Ephrin type-A receptor 2 (Homo sapiens) (UniProt P29317); assay: Inhibition of recombinant human EPHA2 at 100 nM after 60 mins by ELISA relative to control
[41] = biological target: Receptor tyrosine-protein kinase erbB-4 (Homo sapiens) (UniProt Q15303); assay: Inhibition of recombinant human Erbb4 at 100 nM after 60 mins by ELISA relative to control
[42] = test system: Mus musculus; assay: Toxicity in nude mouse xenografted with human SNU5 cells assessed as body weight at 20 mg/kg, po qd for 21 days (reference value: 19.6 g); assay type: organism-based; conditions: in vivo, 504 h
[43] = test system: MKN-74; assay: Cell cycle arrest in human MKN74 cells assessed as accumulation at G2/M phase after 24 hrs by propidium iodide staining based flow cytometry; assay type: functional
[44] = MRT in ICR mouse at 5 mg/kg, iv administered as single dose by LC-MS analysis; assay type: ADME, organism-based; conditions: in vivo
[45] = biological target: Tyrosine-protein kinase ABL1 (Homo sapiens) (UniProt P00519); assay: Inhibition of recombinant human ABL at 100 nM after 60 mins by ELISA relative to control
[46] = biological target: Epidermal growth factor receptor (Homo sapiens) (UniProt P00533); assay: Inhibition of recombinant human EGFR at 100 nM after 60 mins by ELISA relative to control
[47] = biological target: Receptor tyrosine-protein kinase erbB-4 (Homo sapiens) (UniProt Q15303); assay: Inhibition of recombinant human Erbb4 at 1000 nM after 60 mins by ELISA relative to control

Chain of Vascular endothelial growth factor receptor 2 (P35968 whole entry): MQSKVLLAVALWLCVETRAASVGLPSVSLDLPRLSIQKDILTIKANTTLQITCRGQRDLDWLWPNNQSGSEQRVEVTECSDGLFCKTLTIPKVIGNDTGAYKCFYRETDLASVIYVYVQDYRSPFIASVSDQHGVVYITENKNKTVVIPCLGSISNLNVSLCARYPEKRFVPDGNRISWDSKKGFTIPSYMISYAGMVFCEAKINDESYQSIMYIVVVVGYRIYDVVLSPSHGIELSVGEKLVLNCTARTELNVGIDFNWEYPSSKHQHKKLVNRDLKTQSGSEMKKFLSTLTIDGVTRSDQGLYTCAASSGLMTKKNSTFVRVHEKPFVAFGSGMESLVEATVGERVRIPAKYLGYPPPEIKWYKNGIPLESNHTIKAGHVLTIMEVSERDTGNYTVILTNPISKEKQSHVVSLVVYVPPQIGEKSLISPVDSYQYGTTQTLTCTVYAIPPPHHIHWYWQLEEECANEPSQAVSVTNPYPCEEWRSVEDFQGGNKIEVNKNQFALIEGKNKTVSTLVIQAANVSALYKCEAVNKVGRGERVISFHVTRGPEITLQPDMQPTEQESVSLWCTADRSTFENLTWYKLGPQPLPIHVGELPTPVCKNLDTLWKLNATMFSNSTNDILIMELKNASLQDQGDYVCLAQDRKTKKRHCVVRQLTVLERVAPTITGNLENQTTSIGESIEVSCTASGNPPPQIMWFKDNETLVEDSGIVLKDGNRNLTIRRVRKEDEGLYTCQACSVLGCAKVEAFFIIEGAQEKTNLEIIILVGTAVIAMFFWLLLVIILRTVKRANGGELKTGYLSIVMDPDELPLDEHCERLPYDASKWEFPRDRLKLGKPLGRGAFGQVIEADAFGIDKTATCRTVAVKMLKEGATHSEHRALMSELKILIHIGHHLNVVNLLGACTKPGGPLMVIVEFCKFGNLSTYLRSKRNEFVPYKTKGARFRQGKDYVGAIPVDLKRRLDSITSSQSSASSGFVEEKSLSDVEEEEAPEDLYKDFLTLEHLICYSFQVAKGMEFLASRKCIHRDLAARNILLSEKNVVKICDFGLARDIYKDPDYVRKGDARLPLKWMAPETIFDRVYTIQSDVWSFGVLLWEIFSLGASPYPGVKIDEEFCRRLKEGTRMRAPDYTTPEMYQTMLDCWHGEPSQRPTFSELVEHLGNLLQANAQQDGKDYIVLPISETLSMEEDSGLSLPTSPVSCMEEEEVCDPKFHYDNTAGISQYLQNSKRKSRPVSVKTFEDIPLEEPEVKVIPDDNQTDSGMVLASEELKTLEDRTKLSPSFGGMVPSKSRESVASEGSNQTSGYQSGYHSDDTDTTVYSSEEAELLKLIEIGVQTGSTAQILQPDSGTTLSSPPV
Chain of Proto-oncogene tyrosine-protein kinase receptor Ret (Homo sapiens) (P07949 whole entry): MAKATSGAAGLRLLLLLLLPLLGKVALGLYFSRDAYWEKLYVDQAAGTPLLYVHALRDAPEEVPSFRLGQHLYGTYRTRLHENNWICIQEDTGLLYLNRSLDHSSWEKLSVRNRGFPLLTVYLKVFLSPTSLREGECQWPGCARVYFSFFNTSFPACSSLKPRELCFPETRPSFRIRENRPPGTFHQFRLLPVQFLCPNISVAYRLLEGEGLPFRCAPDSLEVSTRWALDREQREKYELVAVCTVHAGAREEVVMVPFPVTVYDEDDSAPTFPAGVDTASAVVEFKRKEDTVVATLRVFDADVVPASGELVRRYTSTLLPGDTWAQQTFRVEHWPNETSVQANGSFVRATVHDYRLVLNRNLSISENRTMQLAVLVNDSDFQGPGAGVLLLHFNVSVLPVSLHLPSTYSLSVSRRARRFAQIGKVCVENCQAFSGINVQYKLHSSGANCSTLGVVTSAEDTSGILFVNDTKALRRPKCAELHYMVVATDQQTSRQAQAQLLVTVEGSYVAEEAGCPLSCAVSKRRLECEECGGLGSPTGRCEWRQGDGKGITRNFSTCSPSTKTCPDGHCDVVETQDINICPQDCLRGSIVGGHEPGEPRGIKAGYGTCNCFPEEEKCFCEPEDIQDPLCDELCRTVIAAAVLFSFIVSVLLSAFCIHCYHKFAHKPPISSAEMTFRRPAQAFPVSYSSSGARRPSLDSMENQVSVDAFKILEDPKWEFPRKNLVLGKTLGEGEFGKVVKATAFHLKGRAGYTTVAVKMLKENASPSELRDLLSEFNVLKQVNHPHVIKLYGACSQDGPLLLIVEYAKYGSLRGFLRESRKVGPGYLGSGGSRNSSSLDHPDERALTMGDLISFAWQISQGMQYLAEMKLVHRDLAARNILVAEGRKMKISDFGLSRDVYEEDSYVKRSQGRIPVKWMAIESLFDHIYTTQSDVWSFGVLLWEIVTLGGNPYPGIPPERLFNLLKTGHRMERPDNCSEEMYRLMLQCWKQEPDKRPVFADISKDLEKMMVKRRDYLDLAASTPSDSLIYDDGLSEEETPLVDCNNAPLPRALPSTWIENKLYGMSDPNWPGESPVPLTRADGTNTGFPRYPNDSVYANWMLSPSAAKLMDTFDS
Chain of Aurora kinase B (Q96GD4 whole entry): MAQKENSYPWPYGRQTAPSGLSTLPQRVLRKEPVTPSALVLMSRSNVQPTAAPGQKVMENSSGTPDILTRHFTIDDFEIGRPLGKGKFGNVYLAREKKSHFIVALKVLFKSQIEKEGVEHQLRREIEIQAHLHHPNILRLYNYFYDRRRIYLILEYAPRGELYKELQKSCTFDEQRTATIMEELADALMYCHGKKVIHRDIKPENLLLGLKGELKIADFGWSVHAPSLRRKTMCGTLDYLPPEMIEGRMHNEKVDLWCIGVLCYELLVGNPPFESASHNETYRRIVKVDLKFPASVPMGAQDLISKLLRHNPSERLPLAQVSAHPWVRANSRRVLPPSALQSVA
Chain of Platelet-derived growth factor receptor beta (Homo sapiens) (P09619 whole entry): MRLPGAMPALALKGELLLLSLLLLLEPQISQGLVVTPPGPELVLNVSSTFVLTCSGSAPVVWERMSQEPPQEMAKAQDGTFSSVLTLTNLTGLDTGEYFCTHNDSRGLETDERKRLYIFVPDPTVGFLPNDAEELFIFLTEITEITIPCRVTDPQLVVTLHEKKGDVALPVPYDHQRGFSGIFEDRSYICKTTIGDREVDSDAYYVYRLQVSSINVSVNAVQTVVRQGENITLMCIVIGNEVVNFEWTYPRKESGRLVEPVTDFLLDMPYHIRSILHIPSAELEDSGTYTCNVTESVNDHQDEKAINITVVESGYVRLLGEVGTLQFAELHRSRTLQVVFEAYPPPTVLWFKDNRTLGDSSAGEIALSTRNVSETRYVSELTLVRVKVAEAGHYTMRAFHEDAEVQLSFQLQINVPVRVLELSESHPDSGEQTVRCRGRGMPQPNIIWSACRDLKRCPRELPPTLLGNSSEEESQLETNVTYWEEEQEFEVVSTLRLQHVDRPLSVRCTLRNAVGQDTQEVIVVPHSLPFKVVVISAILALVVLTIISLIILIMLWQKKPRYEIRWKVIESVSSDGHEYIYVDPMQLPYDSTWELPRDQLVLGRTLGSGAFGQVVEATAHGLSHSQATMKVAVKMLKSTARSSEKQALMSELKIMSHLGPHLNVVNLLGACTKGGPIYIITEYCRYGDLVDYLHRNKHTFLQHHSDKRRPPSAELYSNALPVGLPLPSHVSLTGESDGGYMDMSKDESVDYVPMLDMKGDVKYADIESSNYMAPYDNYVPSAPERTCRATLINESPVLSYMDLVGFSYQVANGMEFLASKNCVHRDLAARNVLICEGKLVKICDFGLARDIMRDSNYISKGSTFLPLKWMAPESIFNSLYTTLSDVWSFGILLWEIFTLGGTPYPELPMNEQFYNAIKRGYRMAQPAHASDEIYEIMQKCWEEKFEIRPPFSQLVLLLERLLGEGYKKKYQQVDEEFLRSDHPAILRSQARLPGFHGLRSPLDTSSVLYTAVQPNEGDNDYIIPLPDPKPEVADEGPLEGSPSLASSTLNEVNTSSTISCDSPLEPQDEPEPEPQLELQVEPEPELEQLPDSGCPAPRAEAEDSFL
Chain of Tyrosine-protein kinase ABL1 (Homo sapiens) (P00519 whole entry): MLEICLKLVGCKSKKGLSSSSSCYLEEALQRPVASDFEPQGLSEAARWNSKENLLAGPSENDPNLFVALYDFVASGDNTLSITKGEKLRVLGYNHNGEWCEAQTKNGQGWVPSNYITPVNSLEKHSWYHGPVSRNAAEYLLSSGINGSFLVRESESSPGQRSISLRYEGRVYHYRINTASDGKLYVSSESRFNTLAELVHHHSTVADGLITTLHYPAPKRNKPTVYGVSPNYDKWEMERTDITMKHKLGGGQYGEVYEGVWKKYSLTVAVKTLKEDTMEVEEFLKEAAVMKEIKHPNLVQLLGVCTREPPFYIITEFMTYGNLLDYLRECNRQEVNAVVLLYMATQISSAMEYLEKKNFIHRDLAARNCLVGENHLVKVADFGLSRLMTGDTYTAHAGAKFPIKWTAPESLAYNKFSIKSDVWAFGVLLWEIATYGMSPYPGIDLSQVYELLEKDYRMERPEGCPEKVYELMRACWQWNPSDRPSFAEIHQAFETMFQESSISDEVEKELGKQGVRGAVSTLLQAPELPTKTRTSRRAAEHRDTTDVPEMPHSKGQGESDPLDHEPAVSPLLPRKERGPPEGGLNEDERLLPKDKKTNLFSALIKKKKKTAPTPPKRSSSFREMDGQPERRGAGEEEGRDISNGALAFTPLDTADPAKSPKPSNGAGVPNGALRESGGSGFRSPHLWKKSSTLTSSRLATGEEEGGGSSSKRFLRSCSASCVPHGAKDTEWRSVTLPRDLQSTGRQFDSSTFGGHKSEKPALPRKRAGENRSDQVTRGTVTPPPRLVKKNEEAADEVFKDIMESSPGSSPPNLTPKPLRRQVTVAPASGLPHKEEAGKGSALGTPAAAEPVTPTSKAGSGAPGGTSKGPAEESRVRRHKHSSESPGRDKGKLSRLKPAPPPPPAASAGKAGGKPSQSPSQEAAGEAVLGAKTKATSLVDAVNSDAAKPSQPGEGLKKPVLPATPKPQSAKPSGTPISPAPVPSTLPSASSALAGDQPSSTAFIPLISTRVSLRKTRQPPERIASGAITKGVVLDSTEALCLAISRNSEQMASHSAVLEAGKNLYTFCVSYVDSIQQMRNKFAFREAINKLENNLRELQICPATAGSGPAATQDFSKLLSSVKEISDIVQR

SMILES: COc1cccc2c1C(=O)c1c(O)c3c(c(O)c1C2=O)C[C@@](O)(C(=O)CO)C[C@@H]3O[C@H]1C[C@H](N)[C@H](O)[C@H](C)O1 [DOXORUBICIN]
IC50 [1]: 204 nM
IC50 [2]: 130 nM
IC50 [3]: 237 nM
IC50 [4]: 127 nM
IC50 [5]: 405 nM

SMILES: Cc1ccc(C2=Nc3c(n[nH]c3C)Nc3nc(NC(C)C)ncc32)cc1
IC50 [6]: 63.1 nM
IC50 [7]: 54.1 nM
IC50 [8]: 30.3 nM

SMILES: COc1cc2nccc(Oc3ccc(NC(=O)C4(C(=O)Nc5ccc(F)cc5)CC4)cc3)c2cc1OC [CABOZANTINIB]
Activity [11]: 19.9 g
T/C [12]: 8.41%
Activity [13]: Non-Toxic

SMILES: CSc1ncc2c(n1)Nc1n[nH]c(C)c1N=C2c1ccccc1
IC50 [6]: 193 nM
IC50 [7]: 894 nM
IC50 [8]: 697 nM

SMILES: Cc1ccc(C2=Nc3c(n[nH]c3C)Nc3nc(N4CCOCC4)ncc32)cc1
inhibition [14]: 0%
T/C [15]: 61.63%
bioavailability [16]: 63.8%
Activity [17]: Non-Toxic
inhibition [18]: 0%
IC50 [1]: 3140 nM
Activity [19]: Dose-dependent effect
inhibition [20]: 1.4%
Vd [21]: 2.01 L/kg
half-life [22]: 3.27 h
inhibition [23]: 28.7%
Activity [24]: Dose-dependent effect
Cmax [25]: 2780 ng/mL
inhibition [26]: 32%
inhibition [27]: 26.8%
inhibition [28]: 37.4%
IC50 [2]: > 10000 nM
IC50 [3]: 1270 nM
AUCt [29]: 4724 ng·mL·h
inhibition [30]: 0%
inhibition [31]: 28.1%
IC50 [4]: 1260 nM
inhibition [32]: 0%
Tmax [33]: 0.5 h
inhibition [9]: 41%
half-life [34]: 1.53 h
Activity [35]: Dose-dependent effect
inhibition [36]: 13.2%
clearance [37]: 17.3 mL/min/kg
AUCt [38]: 15335 ng·mL·h
inhibition [39]: 3%
inhibition [40]: 3.9%
inhibition [41]: 12%
IC50 [6]: 46.2 nM
Activity [42]: 18.4 g
Activity [43]: Dose-dependent effect
MRT [44]: 1.93 h
IC50 [7]: 37.6 nM
IC50 [5]: > 10000 nM
IC50 [8]: 21.6 nM
inhibition [10]: 68.7%
inhibition [45]: 0%
inhibition [46]: 24.5%
inhibition [47]: 17.5%

Other lines, results leading:

inhibition [9]: 75.7%
inhibition [10]: 76.7%
SMILES: CCN(CC)CCNC(=O)c1c(C)[nH]c(/C=C2\C(=O)Nc3ccc(F)cc32)c1C

IC50 [6]: 397 nM
IC50 [7]: 352 nM
IC50 [8]: 199 nM
SMILES: CNc1ncc2c(n1)Nc1n[nH]c(C)c1N=C2c1ccc(C)cc1

IC50 [6]: 75 nM
IC50 [7]: 610 nM
IC50 [8]: 110 nM
SMILES: CSc1ncc2c(n1)Nc1n[nH]c(C)c1N=C2c1ccccc1C

IC50 [6]: 268 nM
IC50 [7]: 322 nM
IC50 [8]: 8.3 nM
SMILES: CCN(CC)c1ncc2c(n1)Nc1n[nH]c(C)c1N=C2c1ccc(C)cc1

IC50 [6]: 70.6 nM
IC50 [7]: 99.8 nM
IC50 [8]: 157 nM
SMILES: CSc1ncc2c(n1)Nc1n[nH]c(C)c1N=C2c1ccc(C)cc1

IC50 [6]: 93 nM
IC50 [7]: 2680 nM
IC50 [8]: 430 nM
SMILES: COc1ccc(C2=Nc3c(n[nH]c3C)Nc3nc(SC)ncc32)cc1
